Data: patent US7192941B2, “Estradiol metabolites for the treatment of pulmonary hypertension” (priority 2003, dated 2007)

Experiments:
Type in all cases: in vivo, male Sprague Dawley rats
[1] = test system: monocrotaline-induced pulmonary hypertension; assay: Monocrotaline-induced pulmonary hypertension in rats: organ weights and hemodynamics (central venous pressure); conditions: MCT 60 mg/kg s.c., 10 μg/kg/hour by osmotic minipump, 21 days; for adverse consequences associated with monocrotaline treatment (pulmonary hypertension, increased lung weight, cardiac hypertrophy, right ventricular hypertrophy): FIGS. 1-4
Description: (§1) A total of twenty-seven, male Sprague Dawley rats (Charles River, Wilmington, Mass.) (378 +/−12 grams) were utilized in this experiment. Animals were housed in the University of Pittsburgh Medical Center animal care facility (temperature 22° C., light cycle 12 hours, relative humidity 55%). Animals were fed Pro Lab RHM 3000 rodent diet (PMI Nutrition, Inc, St Louis, Mo.) and were given water ad libitum. Institutional guidelines for animal welfare were followed, and the Animal Care and Use Committee approved experimental protocols.
(§2) Animals were randomly assigned to receive subcutaneously saline (1 ml/kg, n=6) or monocrotaline (Sigma, St Louis, Mo.) (MCT, 60 mg/kg subcutaneously) (n=21). Monocrotaline is an agent known to induce pulmonary hypertension. Six hours after the initial injection, control animals were implanted with osmotic minipumps (model 2ML4, Alza, Palo Alto, Calif.) containing vehicle (polyethylene glycol 400, 2.5 μl/hour) (Sigma, St Louis, Mo.), whereas MCT treated animals were implanted with osmotic minipumps containing either vehicle (MCT group; n=7), 2-hydroxyestradiol (Steraloids, Newport, R.I.) (10 μg/kg/hour, MCT+2HE group, n=7) or 2-methoxyestradiol (Steraloids, Newport, R.I.) (10 μg/kg/hour, MCT+2ME group, n=7). Assignment to the MCT, MCT+2HE, and MCT+2ME groups was conducted randomly.
After 21 days animals were weighed, anesthetized with pentobarbital (Sigma, St Louis, Mo.) (50 mg/kg) intraperitoneally, and instrumented for measurements of blood pressure, heart rate and central venous pressure. A PE-50 catheter was inserted into the right jugular vein and advanced approximately one inch and connected to a low-pressure analyzer (LPA, Micro-Med., Inc., Louisville Ky.) for continuous measurements of central venous pressure. […]
Animals were killed by an overdose of anesthetic, and the heart and lungs were removed and weighed. […] Both ventricles were weighed and the right ventricle to left ventricle plus septum ratio was calculated. […]

[2] = test system: proliferating cell nuclear antigen (PCNA); assay: Cell proliferation (PCNA immunostaining) in lungs, right ventricle and main pulmonary artery of monocrotaline-treated rats; conditions: vs MCT group, 10 μg/kg/hour, 21 days, p<0.001; for inhibition of proliferative response (PCNA staining) in the lungs: FIG. 6A; for inhibition of proliferative response (PCNA staining) in the right ventricle: FIG. 6B; for inhibition of proliferative response (PCNA staining) in the main pulmonary artery: FIG. 6C
Description: as §1, §2
The fixed specimens were embedded in paraffin and cut into 4-micron-thick sections for subsequent light microscopy and immunohistochemical analysis.
For the assessment of proliferation, the proliferating cell nuclear antigen (PCNA) was labeled using the primary monoclonal mouse antibody ( 1/200 dilution; Dako, Carpenteria, Calif.) and VEGF expression was measured using a rabbit polyclonal antibody ( 1/50 dilution, Lab Vision, Fremont, Calif.). A polyclonal ED1 antibody (Serotec, Raleigh, N.C.) specific for the monocyte/macrophage cytoplasmatic antigen was used to label vascular (main pulmonary artery) and pulmonary macrophages. For measurement of nonspecific staining, the primary antibody was replaced with phosphate buffered saline (PBS). Sections were washed and further developed according to the directions of the manufacturer (Dako Corporation, Carpinteria, Calif.) using the LSAB2 kit that contained a second antibody linked to […]. Immunochemical staining for PCNA and VEGF were assessed quantitatively with a SAMBA 4000 image analyzer (Image Products International, Chantilly, Va.) using specialized computer software designed for immunostaining analysis (Immuno-Analysis, version 4.1, Microsoft, Richmond, Wash.). The software set density threshold values by averaging several fields on the negative control tissues in which the primary antibody was replaced with PBS. Background subtraction was then performed on every tissue. Ten high power fields (×400) were assessed for staining density, wall thickness or positively marked cells for ED-1. The results for PCNA and VEGF are reported as the labeling index, which represents the percentage of the total examined area that stained positively. Staining intensity of positive areas was also assessed (mean optical density), and a mean quick score was then calculated (mean optical density×labeling index). The inflammatory response data are expressed as the total number of ED1+ cells per ten high power fields
Statistical analyses were performed using the Number Cruncher Statistical software program (Kaysville, Utah). Group comparisons were performed by a one-factor analysis of variance (1-F ANOVA), followed by post-hoc comparison using the Fisher's LSD test. All data are presented as mean ±S.E.M.

[3] = test system: vascular endothelial growth factor (VEGF) expression; assay: VEGF expression (immunohistochemistry) in lungs of monocrotaline-treated rats; conditions: MCT rats, 10 μg/kg/hour, 21 days, mean ±S.E.M., Control 34.2±2.2, MCT 42.8±2.6, p=0.482
Description: as §1
Animals were randomly assigned to receive subcutaneously saline (1 ml/kg, n=6) or monocrotaline (Sigma, St Louis, Mo.) (MCT, 60 mg/kg subcutaneously) (n=21). […]
For the assessment of proliferation, the proliferating cell nuclear antigen (PCNA) was labeled using the primary monoclonal mouse antibody ( 1/200 dilution; Dako, Carpenteria, Calif.) and VEGF expression was measured using a rabbit polyclonal antibody ( 1/50 dilution, Lab Vision, Fremont, Calif.). […] Immunochemical staining for PCNA and VEGF were assessed quantitatively with a SAMBA 4000 image analyzer (Image Products International, Chantilly, Va.) using specialized computer software designed for immunostaining analysis (Immuno-Analysis, version 4.1, Microsoft, Richmond, Wash.). […] Ten high power fields (×400) were assessed for staining density, wall thickness or positively marked cells for ED-1. […]

[4] = test system: small size pulmonary arteries; assay: Vascular remodeling: wall/media thickness of small size pulmonary arteries (smooth muscle alpha-actin staining) in monocrotaline-treated rats; conditions: vs MCT group (wall thickness increased by 87% vs control); 10 μg/kg/hour, 21 days; p<0.001; FIG. 9
Description: as §1
Animals were randomly assigned to receive subcutaneously saline (1 ml/kg, n=6) or monocrotaline (Sigma, St Louis, Mo.) (MCT, 60 mg/kg subcutaneously) (n=21). Monocrotaline is an agent known to induce pulmonary hypertension. […]
For assessment of vascular remodeling, vascular smooth muscle cells in pulmonary arteries were stained with smooth muscle alpha-actin Ab-1 mouse monoclonal antibody ( 1/100 dilution, Lab Vision, Fremont, Calif.). The wall and media thickness were measured in small size pulmonary arteries (50–200 microns) using commercial imaging software. Only vessels with an approximately circular profile were analyzed. […]

Row | SMILES | adverse consequences associated with monocrotaline treatment (pulmonary hypertension, increased lung weight, cardiac hypertrophy, right ventricular hypertrophy) [1] | inhibition of proliferative response (PCNA staining) in the lungs [2] [%] | inhibition of proliferative response (PCNA staining) in the right ventricle [2] [%] | inhibition of proliferative response (PCNA staining) in the main pulmonary artery [2] [%] | VEGF labeling index (percent of the lung tissue stained positive for VEGF) [3] [%] | attenuation of MCT-induced hypertrophy of the media (wall thickness, small size pulmonary arteries) [4] [%] | central venous pressure ([1]; FIG. 5)
1 | C[C@]12CC[C@@H]3c4cc(O)c(O)cc4CC[C@H]3[C@@H]1CC[C@@H]2O [2HE, estra-1,3,5 (10)-triene-2,3,17-triol (17β)] | did not demonstrate the same level of adverse consequences | −60 | −81 | −83 | 37.6±3.3 | −50 | –
2 | COc1cc2c(cc1O)CC[C@@H]1[C@@H]2CC[C@]2(C)[C@@H](O)CC[C@@H]12 [2ME, estra-1,3,5 (10)-triene-2-methoxy-3, 17-diol (17β)] | did not demonstrate the same level of adverse consequences | −70 | −77 | −94 | 37.6±3.9 | −40 | especially effective at reducing central venous pressure
